{"source": "patent US6365549B2", "about": "“Methods of blocking an ethylene response in plants using cyclopropene derivatives” (North Carolina State University, priority 1999, dated 2002)", "system": "Patio variety tomato seedlings", "experiment": "Tomato epinasty test, volatile gas treatment", "type": "in vivo", "settings": "ethylene 10 ppm v/v, scale of 0 to 10, 10 complete protection, 0 no protection", "procedure": "The test procedure is designed to determine the ability of an compound according to the present invention to block the epinastic growth response induced by ethylene in tomato plants when the compound is administered either as a volatile gas or as a component of a spray solution. Treatment chambers are of an appropriate size for the test plants and are airtight. Each is fitted with a reusable septum to be used for injection of ethylene. Test plants are Patio variety tomato seedlings planted two plants per three inch square plastic pot. Volatile gas treatment entails placing two pots of Patio var. tomatoes into a polystyrene 4.8 L volume treatment chamber along with one-half (upper or lower section) of a 50×9 mm plastic Petri dish containing a Gelman filter pad. The appropriate amount of experimental compound, dissolved in 1.0 ml acetone, is pipetted onto the filter pad and the chamber immediately sealed. Four hours later ethylene gas equal to 10 ppm v/v final concentration is injected into the sealed chamber. Sixteen hours later the chambers are opened in an exhaust hood, allowed to air and the plants scored visually for the degree of protection against ethylene-induced epinasty conferred by the experimental compound when compared to ethylene treated and untreated controls on a scale of 0 to 10. A rating of 10 means complete protection. A rating of 0 means no protection from the effects of ethylene."}
{"molecule": "1-Pentyloxyethyl-cyclopropene [Compound 15]", "values": [{"measurement": "Protection against ethylene-induced epinasty, rating", "setting": "Gas 10 ppm", "value": 10}]}
{"molecule": "CON=C(C)CCCCCCC1=CC1", "note": "(single isomer, unassigned) [Compound 47, 8-Cycloprop-1-enyl-octan-2-one O-methyl Oxime]", "values": [{"measurement": "Protection against ethylene-induced epinasty, rating", "setting": "Gas 10 ppm", "value": 9.5}]}
{"molecule": "CCCCCCCCC1C=C1", "note": "[Compound 2, 3-Octylcyclopropene]", "values": [{"measurement": "Protection against ethylene-induced epinasty, rating", "setting": "Gas 10 ppm", "value": 0}, {"measurement": "Protection against ethylene-induced epinasty, rating", "setting": "Gas 1000 ppm", "value": 10}]}
{"molecule": "COCCCCCCCC1=CC1", "note": "[Compound 3, 1-(7-Methoxyheptyl)-cyclopropene]", "values": [{"measurement": "Protection against ethylene-induced epinasty, rating", "setting": "Gas 10 ppm", "value": 9.5}]}
{"molecule": "CCCCCC#CCCCCC1=CC1", "note": "[Compound 4, 1-(Undec-5-ynl)-cyclopropene]", "values": [{"measurement": "Protection against ethylene-induced epinasty, rating", "setting": "Gas 10 ppm", "value": 10}]}
{"molecule": "OCCCCCCCC1=CC1", "note": "[Compound 5, 1-(7-Hydroxyheptyl)-cyclopropene]", "values": [{"measurement": "Protection against ethylene-induced epinasty, rating", "setting": "Gas 10 ppm", "value": 0}, {"measurement": "Protection against ethylene-induced epinasty, rating", "setting": "Gas 1000 ppm", "value": 10}]}
{"molecule": "CC(=O)OCCCCCCCC1=CC1", "note": "[Compound 6, 1-(7-Acetoxyheptyl)-cyclopropene]", "values": [{"measurement": "Protection against ethylene-induced epinasty, rating", "setting": "Gas 10 ppm", "value": 0}, {"measurement": "Protection against ethylene-induced epinasty, rating", "setting": "Gas 1000 ppm", "value": 10}]}
{"molecule": "O=C(O)CCCCCCC1=CC1", "note": "[Compound 7, 7-Cycloprop-1-enyl-heptanoic Acid]", "values": [{"measurement": "Protection against ethylene-induced epinasty, rating", "setting": "Gas 10 ppm", "value": 3}, {"measurement": "Protection against ethylene-induced epinasty, rating", "setting": "Gas 1000 ppm", "value": 8}]}
{"molecule": "CC(C)N.O=C(O)CCCCCCC1=CC1", "note": "[Compound 8, 7-Cycloprop-1-enyl-heptanoic Acid Isopropylamine Salt]", "values": [{"measurement": "Protection against ethylene-induced epinasty, rating", "setting": "Gas 10 ppm", "value": 0}, {"measurement": "Protection against ethylene-induced epinasty, rating", "setting": "Gas 500 ppm", "value": 8}]}
{"molecule": "CCOC(=O)CCCCCCC1=CC1", "note": "[Compound 9, 7-Cycloprop-1-enyl-heptanoic Acid Ethyl Ester]", "values": [{"measurement": "Protection against ethylene-induced epinasty, rating", "setting": "Gas 10 ppm", "value": 4}]}
{"molecule": "N#CCCCCCCCC1=CC1", "note": "[Compound 10, 1-(7-Cyanoheptyl)-cyclopropene]", "values": [{"measurement": "Protection against ethylene-induced epinasty, rating", "setting": "Gas 10 ppm", "value": 2}, {"measurement": "Protection against ethylene-induced epinasty, rating", "setting": "Gas 1000 ppm", "value": 10}]}
{"molecule": "CCN(CC)CCCCCCCC1=CC1", "note": "[Compound 11, 1-(7-N,N-Diethylaminoheptyl)-cyclopropene]", "values": [{"measurement": "Protection against ethylene-induced epinasty, rating", "setting": "Gas 10 ppm", "value": 3}, {"measurement": "Protection against ethylene-induced epinasty, rating", "setting": "Gas 1000 ppm", "value": 10}]}
{"molecule": "CC(=O)O.CCN(CC)CCCCCCCC1=CC1", "note": "[Compound 12, 1-(7-N,N,-Diethylammoniumheptyl)-cyclopropene Acetate]", "values": [{"measurement": "Protection against ethylene-induced epinasty, rating", "setting": "Gas 10 ppm", "value": 2}, {"measurement": "Protection against ethylene-induced epinasty, rating", "setting": "Gas 1000 ppm", "value": 10}]}
{"molecule": "CC[N+](C)(CC)CCCCCCCC1=CC1.[I-]", "note": "[Compound 13, 1-(7-N,N,N-Diethylmethylammoniumheptyl)-cyclopropene Iodide]", "values": [{"measurement": "Protection against ethylene-induced epinasty, rating", "setting": "Gas 10 ppm", "value": 6}]}
{"molecule": "CCCCCCOCC1=CC1", "note": "[Compound 14, 1-Hexyloxymethyl-cyclopropene]", "values": [{"measurement": "Protection against ethylene-induced epinasty, rating", "setting": "Gas 10 ppm", "value": 10}]}
{"molecule": "CCCCCC1(CCCCC)C=C1", "note": "[Compound 16, 3,3-Dipentyl-cyclopropene]", "values": [{"measurement": "Protection against ethylene-induced epinasty, rating", "setting": "Gas 10 ppm", "value": 0}, {"measurement": "Protection against ethylene-induced epinasty, rating", "setting": "Gas 1000 ppm", "value": 10}]}
{"molecule": "CCC=CCC1=C(CCCCC)C1", "note": "[Compound 17, 1-Pent-2-enyl-2-pentyl-cyclopropene]", "values": [{"measurement": "Protection against ethylene-induced epinasty, rating", "setting": "Gas 10 ppm", "value": 0}, {"measurement": "Protection against ethylene-induced epinasty, rating", "setting": "Gas 1000 ppm", "value": 10}]}
{"molecule": "CCC=CCC1=CC1(CCCCC)CCCCC", "note": "[Compound 18, 1-Pent-2-enyl-3,3-dipentyl-cyclopropene]", "values": [{"measurement": "Protection against ethylene-induced epinasty, rating", "setting": "Gas 10 ppm", "value": 0}, {"measurement": "Protection against ethylene-induced epinasty, rating", "setting": "Gas 1000 ppm", "value": 10}]}
{"molecule": "C=CCCCCCCC1=CC1", "note": "[Compound 19, 1-(Oct-7-enyl)-cyclopropene]", "values": [{"measurement": "Protection against ethylene-induced epinasty, rating", "setting": "Gas 10 ppm", "value": 10}]}
{"molecule": "CC(C)(O)CCC1=CC1", "note": "[Compound 20, 4-(1-Cyclopropenyl)-2-methylbutan-2-ol]", "values": [{"measurement": "Protection against ethylene-induced epinasty, rating", "setting": "Gas 10 ppm", "value": 0}, {"measurement": "Protection against ethylene-induced epinasty, rating", "setting": "Gas 1000 ppm", "value": 8}]}
{"molecule": "CCCCCCCCC1=C(CCCCCCCC(=O)OC)C1", "note": "[Compound 21, Methyl Sterculate]", "values": [{"measurement": "Protection against ethylene-induced epinasty, rating", "setting": "Gas 10 ppm", "value": 5}, {"measurement": "Protection against ethylene-induced epinasty, rating", "setting": "Gas 1000 ppm", "value": 9}]}
{"molecule": "CCCCCCCCCC1=CC1", "note": "[Compound 24]", "values": [{"measurement": "Protection against ethylene-induced epinasty, rating", "setting": "Gas 10 ppm", "value": 9.5}]}
{"molecule": "CCCCCCCCCCC1=CC1", "note": "[Compound 25]", "values": [{"measurement": "Protection against ethylene-induced epinasty, rating", "setting": "Gas 10 ppm", "value": 9}]}
{"molecule": "CCCCCCCC1=CC1", "note": "[Compound 26]", "values": [{"measurement": "Protection against ethylene-induced epinasty, rating", "setting": "Gas 10 ppm", "value": 10}]}
{"molecule": "CCCCCCCCCCCC1=CC1", "note": "[Compound 27]", "values": [{"measurement": "Protection against ethylene-induced epinasty, rating", "setting": "Gas 10 ppm", "value": 10}]}
{"molecule": "CCCCC(CC)CCC1=CC1", "note": "(stereo not shown) [Compound 28]", "values": [{"measurement": "Protection against ethylene-induced epinasty, rating", "setting": "Gas 10 ppm", "value": 9}]}
{"molecule": "CCCCCCCCCCCCCC1=CC1", "note": "[Compound 29]", "values": [{"measurement": "Protection against ethylene-induced epinasty, rating", "setting": "Gas 10 ppm", "value": 3.5}, {"measurement": "Protection against ethylene-induced epinasty, rating", "setting": "Gas 1000 ppm", "value": 10}]}
{"molecule": "COCCOCCOCC1=CC1", "note": "[Compound 30]", "values": [{"measurement": "Protection against ethylene-induced epinasty, rating", "setting": "Gas 10 ppm", "value": 3}, {"measurement": "Protection against ethylene-induced epinasty, rating", "setting": "Gas 1000 ppm", "value": 10}]}
{"molecule": "CCCCCC1=CC1", "note": "[Compound 31]", "values": [{"measurement": "Protection against ethylene-induced epinasty, rating", "setting": "Gas 10 ppm", "value": 10}]}
{"molecule": "CCCCCC(C)CC1=CC1", "note": "(stereo not shown) [Compound 32]", "values": [{"measurement": "Protection against ethylene-induced epinasty, rating", "setting": "Gas 10 ppm", "value": 9.5}]}
{"molecule": "CCC(=O)OCCC1=CC1", "note": "[Compound 33]", "values": [{"measurement": "Protection against ethylene-induced epinasty, rating", "setting": "Gas 10 ppm", "value": 0}, {"measurement": "Protection against ethylene-induced epinasty, rating", "setting": "Gas 1000 ppm", "value": 10}]}
{"molecule": "CC(C)CCCCCC1=CC1", "note": "[Compound 34]", "values": [{"measurement": "Protection against ethylene-induced epinasty, rating", "setting": "Gas 10 ppm", "value": 10}]}
{"molecule": "CC(CCC1=CC1)CC(C)(C)C", "note": "(stereo not shown) [Compound 35]", "values": [{"measurement": "Protection against ethylene-induced epinasty, rating", "setting": "Gas 10 ppm", "value": 10}]}
{"molecule": "FC(F)(F)CCCCC1=CC1", "note": "[Compound 37]", "values": [{"measurement": "Protection against ethylene-induced epinasty, rating", "setting": "Gas 10 ppm", "value": 10}]}
{"molecule": "CCCCCCCCCCCCCCCC1=CC1", "note": "[Compound 38]", "values": [{"measurement": "Protection against ethylene-induced epinasty, rating", "setting": "Gas 10 ppm", "value": 4.5}, {"measurement": "Protection against ethylene-induced epinasty, rating", "setting": "Gas 1000 ppm", "value": 10}]}
{"molecule": "CCCCCCCCCCCCC1=CC1", "note": "[Compound 40]", "values": [{"measurement": "Protection against ethylene-induced epinasty, rating", "setting": "Gas 10 ppm", "value": 4}, {"measurement": "Protection against ethylene-induced epinasty, rating", "setting": "Gas 1000 ppm", "value": 10}]}
{"molecule": "CCCCN(CCCC)CC1=CC1", "note": "[Compound 41]", "values": [{"measurement": "Protection against ethylene-induced epinasty, rating", "setting": "Gas 10 ppm", "value": 3}, {"measurement": "Protection against ethylene-induced epinasty, rating", "setting": "Gas 1000 ppm", "value": 10}]}
{"molecule": "CCCCCCCCCCCCCCC1=CC1", "note": "[Compound 42]", "values": [{"measurement": "Protection against ethylene-induced epinasty, rating", "setting": "Gas 10 ppm", "value": 2}, {"measurement": "Protection against ethylene-induced epinasty, rating", "setting": "Gas 1000 ppm", "value": 10}]}
{"molecule": "CC(C)(C)CCC1=CC1", "note": "[Compound 43]", "values": [{"measurement": "Protection against ethylene-induced epinasty, rating", "setting": "Gas 10 ppm", "value": 10}]}
{"molecule": "CCCCCCC1=CC1CCCCCC", "note": "(stereo not shown) [Compound 44]", "values": [{"measurement": "Protection against ethylene-induced epinasty, rating", "setting": "Gas 10 ppm", "value": 0}, {"measurement": "Protection against ethylene-induced epinasty, rating", "setting": "Gas 1000 ppm", "value": 10}]}
{"molecule": "CCCCCC1=C(CCCCC)C1", "note": "[Compound 45]", "values": [{"measurement": "Protection against ethylene-induced epinasty, rating", "setting": "Gas 10 ppm", "value": 0}, {"measurement": "Protection against ethylene-induced epinasty, rating", "setting": "Gas 1000 ppm", "value": 10}]}
{"molecule": "CC(=O)CCCCCCC1=CC1", "note": "[Compound 46, 8-Cycloprop-1-enyl-octan-2-one]", "values": [{"measurement": "Protection against ethylene-induced epinasty, rating", "setting": "Gas 10 ppm", "value": 3}, {"measurement": "Protection against ethylene-induced epinasty, rating", "setting": "Gas 1000 ppm", "value": 9}]}
{"molecule": "CCN(CC)C(=O)CCCCCCC1=CC1", "note": "[Compound 48, 7-Cycloprop-1-enyl-heptanoic Acid Diethylamide]", "values": [{"measurement": "Protection against ethylene-induced epinasty, rating", "setting": "Gas 10 ppm", "value": 0}, {"measurement": "Protection against ethylene-induced epinasty, rating", "setting": "Gas 1000 ppm", "value": 7}]}
